Structures can show the parent of a compound that is named as a salt. Where two headings read alike, the source gives them in different places.
Experiments:
[1] = system: SARS-CoV-2 2019-nCoV/USA-WAl/2020; assay: Antiviral activity in primary human bronchial epithelial cells (HBEpC); format: cell-based; details: highest concentration tested (600 µg/mL), added 1 hour prior to infection, day 4
SARS = details: cited from earlier work
BetaCoV/Wuhan/WIV04/2019 = details: against BetaCoV/Wuhan/WIV04/2019; cited from earlier work
[2] = system: SARS-CoV-2 (hCoV-19/Australia/VIC01/2020); format: cell-based
[3] = system: SARS-CoV-2 hCoV-19/Australia/VIC01/2020; assay: microbe, parasite or virus in culture; format: cell-based; details: Severe acute respiratory syndrome coronavirus 2, 96 h; positive control; Vero cells; […]; CPE by MTT after 4 days; read-out: EC50
[4] = system: SARS-CoV-2 (2019-nCoV/USA-WA1/2020); assay: microbe, parasite or virus in culture; format: cell-based; details: for EC50: read-out: EC50

## iota-carrageenan [reference compound]
[1]
  reduction of infection by nucleocapsid ELISA: 17%
  reduction of infection in the plaque assay: 21%

## CCN(CC)CCCC(C)Nc1ccnc2cc(Cl)ccc12 (centres unmarked) [chloroquine]
SARS; against SARS
  IC50: 8 µM
SARS
  CC50: 261 µM
BetaCoV/Wuhan/WIV04/2019
  EC50: 1.13 µM

## CCN(CCO)CCCC(C)Nc1ccnc2cc(Cl)ccc12 (centres unmarked) [Hydroxychloroquine sulfate]
[2]; 15 µM, any time point
  effect on virus replication: no discernible effect

## CCC(CC)COC(=O)[C@H](C)N[P@](=O)(OC[C@H]1O[C@@](C#N)(c2ccc3c(N)ncnn23)[C@H](O)[C@@H]1O)Oc1ccccc1 [Remdesivir, reference compound]
[2]
  inhibition of virus replication: < 1 log10 TCID50
[3]
  EC50: 5.05 µM
[4]; Severe acute respiratory syndrome coronavirus 2, Calu-3
  EC50: 0.589 µM
[4]; Severe acute respiratory syndrome coronavirus 2, Vero C1008
  EC50: 0.791 µM
[4]; positive control
  activity in the plaque assay: active
